In one data set the test system is MCP-1. The experiment in a line: RTqPCR of mRNA levels of inflammatory cytokine MCP-1. It counts as cell-based, human. The settings on record: senescent BM-MSCs, 48h, vs untreated senescent BM-MSCs. The procedure:
(§1) The experiments were conducted on mesenchymal stromal cells obtained from the bone marrow of a donor: BM-MSCs (Promocell). BM-MSCs were cultured in medium maintenance MSC-GM2 (PromoCell) with the addition of Supplement Mix and Penicillin-Streptomycin 1%, in humid atmosphere at 37°C, with 5% CO2. The proliferative capacity of this cell model was evaluated and characterized and the cellular senescence was assessed using p16, p21 expression and beta-galactosidase activity (data not shown). […]
(§2) The anti-inflammatory activity of the individual ingredients and the synergy between them have been assessed by the measurement of mRNA levels of the cytokines involved in inflammatory processes: IL-1β, IL-6, IL-8 and MCP-1 [Lencel et al., 2011; Mulholland et al., 2019]. […]
(§3) The pro-osteogenic activity of the individual components (pro-mineralizing and anti-inflammatory) and their combination was firstly determined through the analysis of the modulation of the mRNA levels of the osteogenic marker COL1α1 in young BM-MSCs cells. […] Furthermore, the pro-mineralizing and anti-inflammatory activity of the individual components and their combination was determined through the analysis of the modulation of the mRNA levels of the osteogenic marker ALP and of the pro-inflammatory markers IL-1β and MCP-1 in senescent BM-MSCs cells. […]
(Real-time PCR tracks product formation cycle by cycle.)

The subject of another data set is IL-1β. The experiment in a line: RTqPCR of mRNA levels of inflammatory cytokine IL-1β. The class given is cell-based, human. Particulars: senescent BM-MSCs, 48h, vs untreated senescent BM-MSCs. The procedure: as §1, §2, §3
A further data set is described as follows: Solubility test. It counts as physicochemical. An excerpt: Before proceeding with the cellular assays, the two ingredients have been tested for their solubility in several solvents, with the aim of identifying the best solubilizing agent (Table 2).

As to `OC[C@H]1O[C@@H](Oc2cc(O)cc(/C=C/c3ccc(O)cc3)c2)[C@H](O)[C@@H](O)[C@@H]1O` [polydatin], the “MCP-1 mRNA levels” value with MCP-1 is on record as “significantly decrease”. Besides, the “IL-1β mRNA levels” value with IL-1β is reported as “significantly decrease”.
On to `CC(C)=CCC/C(C)=C/CC/C(C)=C/CC/C(C)=C/CC/C(C)=C/CC/C(C)=C/CC/C(C)=C/CC1=C(C)C(=O)c2ccccc2C1=O` [Vitamin K2, Menaquinone-7], for which the “Solubility test results: Organic solvents” value in the data set “Solubility test” (organic solvents) is “Not soluble”. In the data set “Solubility test” (solvent Cremophor), the “Solubility test results: Cremophor” value was “Soluble”. In addition, in “Solubility test” (solvent DMSO), the “Solubility test results: DMSO” value is “Not soluble”. Further, in “Solubility test” (solvent PBS), the “Solubility test results: PBS” value was “Not soluble”.

These data come from patent EP4205733B1, “COMPOSITION FOR THE TREATMENT OF OSTEOPENIA AND OSTEOPOROSIS” (MIVELL S.R.L.S., priority 2021, dated 2023).
